From patent publication US20170233413A1, “SUBSTITUTED ANNULATED PYRIMIDINES AND USE THEREOF” (Bayer Pharma Aktiengesellschaft, priority 2014, published 2017) come the findings set out here.

The target of experiment [1] is T1, recombinant guanylate cyclase reporter cell line (Rattus norvegicus, UniProt P19686+P20595).
T1 construct: expressed in transfected cells
T1 sequence (P19686 1-690): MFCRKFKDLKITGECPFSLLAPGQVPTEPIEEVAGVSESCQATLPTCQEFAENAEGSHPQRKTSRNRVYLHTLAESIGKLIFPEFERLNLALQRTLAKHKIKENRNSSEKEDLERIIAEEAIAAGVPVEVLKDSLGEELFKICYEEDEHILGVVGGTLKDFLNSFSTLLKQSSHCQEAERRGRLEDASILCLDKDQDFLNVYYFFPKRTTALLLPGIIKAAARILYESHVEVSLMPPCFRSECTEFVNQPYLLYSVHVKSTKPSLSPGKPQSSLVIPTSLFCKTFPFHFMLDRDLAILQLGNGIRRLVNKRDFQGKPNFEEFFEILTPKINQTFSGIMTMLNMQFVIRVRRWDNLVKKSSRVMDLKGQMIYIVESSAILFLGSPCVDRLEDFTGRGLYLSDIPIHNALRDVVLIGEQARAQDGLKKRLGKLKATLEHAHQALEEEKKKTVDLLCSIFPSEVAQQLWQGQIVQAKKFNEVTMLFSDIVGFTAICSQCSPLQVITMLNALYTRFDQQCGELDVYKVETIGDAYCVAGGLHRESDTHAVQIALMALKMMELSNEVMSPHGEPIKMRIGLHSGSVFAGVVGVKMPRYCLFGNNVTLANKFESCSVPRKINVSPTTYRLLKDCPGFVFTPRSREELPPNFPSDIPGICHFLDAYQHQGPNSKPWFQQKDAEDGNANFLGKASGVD
T1 sequence (P20595 1-619): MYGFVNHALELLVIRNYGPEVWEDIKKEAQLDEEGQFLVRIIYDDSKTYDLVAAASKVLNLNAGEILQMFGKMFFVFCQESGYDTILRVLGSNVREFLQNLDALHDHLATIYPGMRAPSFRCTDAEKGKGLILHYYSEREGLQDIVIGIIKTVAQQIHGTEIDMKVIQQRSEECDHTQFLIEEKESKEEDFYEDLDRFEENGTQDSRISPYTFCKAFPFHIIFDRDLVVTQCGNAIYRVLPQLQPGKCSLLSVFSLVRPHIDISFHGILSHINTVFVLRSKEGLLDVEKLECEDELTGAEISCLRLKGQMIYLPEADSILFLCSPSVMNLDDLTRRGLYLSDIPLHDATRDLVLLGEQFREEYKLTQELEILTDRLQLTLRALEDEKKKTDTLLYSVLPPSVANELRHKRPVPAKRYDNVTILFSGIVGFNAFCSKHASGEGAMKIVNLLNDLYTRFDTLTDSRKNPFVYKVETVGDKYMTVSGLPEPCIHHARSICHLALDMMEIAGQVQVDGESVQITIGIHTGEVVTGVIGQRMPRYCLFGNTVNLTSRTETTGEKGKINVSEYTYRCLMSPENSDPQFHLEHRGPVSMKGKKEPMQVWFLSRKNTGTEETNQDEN
Kind of experiment: Effect on a recombinant guanylate cyclase reporter cell line. The note with it: MEC = minimum effective concentration; in some cases means of individual determinations. Format: cell-based. In outline:
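Cellular activity measured in a recombinant rat soluble guanylate cyclase reporter cell line. Values are minimum effective concentration (MEC), some given as means of individual determinations.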

Experiment [2] has as its target T2, human phosphodiesterase 5 (PDE 5) (Homo sapiens, UniProt O76074).
T2 construct: PDE 5 preparations are obtained from human platelets by disruption; from tissue; host or cells: human platelets
As to the kind of experiment: Inhibition of human phosphodiesterase 5 (PDE 5). Format: biochemical. The note with it: PDE 5 preparation from human platelets; in some cases means of individual determinations. In outline: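 Enzyme partially purified from human platelets by Mono Q ion exchange, diluted so that under 70% of substrate converts. [8-3H]cGMP at 0.025 μCi per well in Tris pH 7.5 with MgCl2/EDTA, 60 min at room temperature, yttrium SPA bead read-out. Final compound concentrations 4–0.0018 μM; IC50 from concentration–inhibition plot.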

For the compound `Cc1nc2c(cc1F)c(-c1nc3c(c(C(N)=O)n1)C(C)(C(F)(F)F)C(=O)N3)nn2Cc1ncccc1F` (single isomer, unassigned; ent-2) [Example 19, ent-2-{5-Fluoro-1-[(3-fluoropyridin-2-yl)methyl]-6-methyl-1H-pyrazolo[3,4-b]pyridin-3-yl}-5-methyl-6-oxo-5-(trifluoromethyl)-6,7-dihydro-5H-pyrrolo[2,3-d]pyrimidine-4-carboxamide (enantiomer A)], the MEC in experiment [1] was 10 µM. In addition, in experiment [2], the half-inhibitory concentration (IC50) came out at 220 nM.
In the same order, the values of `Cc1nc2c(cc1F)c(-c1nc3c(c(C(N)=O)n1)C(C)(C(F)(F)F)C(=O)N3)nn2Cc1ncccc1F` (single isomer, unassigned; ent-2) [Example 20, ent-2-{5-Fluoro-1-[(3-fluoropyridin-2-yl)methyl]-6-methyl-1H-pyrazolo[3,4-b]pyridin-3-yl}-5-methyl-6-oxo-5-(trifluoromethyl)-6,7-dihydro-5H-pyrrolo[2,3-d]pyrimidine-4-carboxamide (enantiomer B)] are 1 µM and 190 nM.
In the same order, the values of `CC1(C(F)(F)F)C(=O)Nc2nc(-c3nn(Cc4ncccc4F)c4ncc(F)cc34)nc(C(N)=O)c21` (single isomer, unassigned; ent-2) [Example 22, ent-2-{5-Fluoro-1-[(3-fluoropyridin-2-yl)methyl]-1H-pyrazolo[3,4-b]pyridin-3-yl}-5-methyl-6-oxo-5-(trifluoromethyl)-6,7-dihydro-5H-pyrrolo[2,3-d]pyrimidine-4-carboxamide (enantiomer A)] are 2 µM and 170 nM.
Take `CC1(C(F)(F)F)C(=O)Nc2nc(-c3nn(Cc4ncccc4F)c4ncc(F)cc34)nc(C(N)=O)c21` (single isomer, unassigned; ent-2) [Example 23, ent-2-{5-Fluoro-1-[(3-fluoropyridin-2-yl)methyl]-1H-pyrazolo[3,4-b]pyridin-3-yl}-5-methyl-6-oxo-5-(trifluoromethyl)-6,7-dihydro-5H-pyrrolo[2,3-d]pyrimidine-4-carboxamide (enantiomer B)]: the MEC in experiment [1] was 6.5 µM. Further, 1300 nM corresponded to half-maximal inhibition in experiment [2] (IC50).
In the same order, the values of `CC1(C)C(=O)Nc2nc(-c3nn(Cc4ccccc4F)c4ncccc34)nc(C(N)=O)c21` [Example 1, 2-[1-(2-Fluorobenzyl)-1H-pyrazolo[3,4-b]pyridin-3-yl]-5,5-dimethyl-6-oxo-6,7-dihydro-5H-pyrrolo[2,3-d]pyrimidine-4-carboxamide] are 0.065 µM and 20 nM.
In the same order, the values of `CC1(C)C(=O)Nc2nc(-c3nn(Cc4ccccc4F)c4ncc(F)cc34)nc(C(N)=O)c21` [Example 2, 2-[5-Fluoro-1-(2-fluorobenzyl)-1H-pyrazolo[3,4-b]pyridin-3-yl]-5,5-dimethyl-6-oxo-6,7-dihydro-5H-pyrrolo[2,3-d]pyrimidine-4-carboxamide] are 0.03 µM and 13 nM.
In the same order, the values of `CC1(C)C(=O)Nc2nc(-c3nn(Cc4ccccc4F)c4cc(Cl)ccc34)nc(C(N)=O)c21` [Example 3, 2-[6-Chloro-1-(2-fluorobenzyl)-1H-indazol-3-yl]-5,5-dimethyl-6-oxo-6,7-dihydro-5H-pyrrolo[2,3-d]pyrimidine-4-carboxamide] are 0.03 µM and 100 nM.
For `Cc1nc2c(cc1F)c(-c1nc3c(c(C(N)=O)n1)C(C)(C)C(=O)N3)nn2Cc1cccc(F)c1F` [Example 4, 2-[1-(2,3-Difluorobenzyl)-5-fluoro-6-methyl-1H-pyrazolo[3,4-b]pyridin-3-yl]-5,5-dimethyl-6-oxo-6,7-dihydro-5H-pyrrolo[2,3-d]pyrimidine-4-carboxamide], the MEC in experiment [1] worked out at 0.2 µM. The compound further registered a half-inhibitory concentration (IC50) in experiment [2] of 110 nM.
As to `Cc1nc2c(cc1F)c(-c1nc3c(c(C(N)=O)n1)C(C)(C)C(=O)N3)nn2Cc1ccccc1F` [Example 5, 2-[5-Fluoro-1-(2-fluorobenzyl)-6-methyl-1H-pyrazolo[3,4-b]pyridin-3-yl]-5,5-dimethyl-6-oxo-6,7-dihydro-5H-pyrrolo[2,3-d]pyrimidine-4-carboxamide], in experiment [1], the MEC came out at 0.3 µM. In experiment [2], this compound displayed an IC50 of 86 nM.
On to `Cc1nc2c(cc1F)c(-c1nc3c(c(C(N)=O)n1)C(C)(C)C(=O)N3)nn2Cc1c(F)ccc(F)c1F` [Example 6, 2-[5-Fluoro-6-methyl-1-(2,3,6-trifluorobenzyl)-1H-pyrazolo[3,4-b]pyridin-3-yl]-5,5-dimethyl-6-oxo-6,7-dihydro-5H-pyrrolo[2,3-d]pyrimidine-4-carboxamide], for which, in experiment [1], the MEC worked out at 0.2 µM. This compound yielded an IC50 in experiment [2] of 140 nM.
For the compound `Cc1nc2c(cc1F)c(-c1nc3c(c(C(N)=O)n1)C(C)(C)C(=O)N3)nn2Cc1ncccc1F` [Example 7, 2-{5-Fluoro-1-[(3-fluoropyridin-2-yl)methyl]-6-methyl-1H-pyrazolo[3,4-b]pyridin-3-yl}-5,5-dimethyl-6-oxo-6,7-dihydro-5H-pyrrolo[2,3-d]pyrimidine-4-carboxamide], in experiment [1], the MEC is 3 µM. For the same compound, in experiment [2], half-maximal inhibition (IC50) was put at 130 nM.
For the compound `CC1(C)C(=O)Nc2nc(-c3nn(Cc4ncccc4F)c4ncc(F)cc34)nc(C(N)=O)c21` [Example 8, 2-{5-fluoro-1-[(3-fluoropyridin-2-yl)methyl]-1H-pyrazolo[3,4-b]pyridin-3-yl}-5,5-dimethyl-6-oxo-6,7-dihydro-5H-pyrrolo[2,3-d]pyrimidine-4-carboxamide], the MEC in experiment [1] was 2 µM. In experiment [2], this compound returned an IC50 of 81 nM.
In the case of `CC1(C)C(=O)Nc2nc(-c3nn(Cc4ccccc4F)c4ncccc34)nc(C(=O)NC3CC3)c21` [Example 24, N-Cyclopropyl-2-[1-(2-fluorobenzyl)-1H-pyrazolo[3,4-b]pyridin-3-yl]-5,5-dimethyl-6-oxo-6,7-dihydro-5H-pyrrolo[2,3-d]pyrimidine-4-carboxamide], the MEC in experiment [1] was determined as 0.1 µM. In experiment [2], the IC50 was determined as 3.5 nM.
In the same order, the values of `CC(C)(O)CNC(=O)c1nc(-c2nn(Cc3ccccc3F)c3ncccc23)nc2c1C(C)(C)C(=O)N2` [Example 25] are 0.3 µM and 2 nM.
In the same order, the values of `CC1(C)C(=O)Nc2nc(-c3nn(Cc4ccccc4F)c4ncccc34)nc(C(=O)N3CCC(O)C3)c21` (stereo not drawn) [Example 26] are 0.3 µM and 930 nM.
For the compound `CC1(C)C(=O)Nc2nc(-c3nn(Cc4ccccc4F)c4ncc(F)cc34)nc(C(=O)NCC3(O)CC3)c21` [Example 27, 2-[5-Fluoro-1-(2-fluorobenzyl)-1H-pyrazolo[3,4-b]pyridin-3-yl]-N-[(1-hydroxycyclopropyl)methyl]-5,5-dimethyl-6-oxo-6,7-dihydro-5H-pyrrolo[2,3-d]pyrimidine-4-carboxamide], the MEC in experiment [1] is 0.1 µM. In experiment [2], this compound yielded an IC50 of 51 nM.
For the compound `CC1(C)C(=O)Nc2nc(-c3nn(Cc4ccccc4F)c4ncc(F)cc34)nc(C(=O)NC3CC3)c21` [Example 28], the MEC in experiment [1] was determined as 0.03 µM. For the same compound, half-maximal inhibition in experiment [2] (IC50) was put at 5.2 nM.
With `CC(C)(O)CNC(=O)c1nc(-c2nn(Cc3ccccc3F)c3ncc(F)cc23)nc2c1C(C)(C)C(=O)N2` [Example 29], the MEC in experiment [1] amounted to 0.3 µM. In experiment [2], this compound yielded an IC50 of 12 nM.
Consider `CC(C)(N)CNC(=O)c1nc(-c2nn(Cc3ccccc3F)c3ncc(F)cc23)nc2c1C(C)(C)C(=O)N2` [Example 30], for which the MEC in experiment [1] was 1 µM. The compound further yielded an IC50 in experiment [2] of 310 nM.
Regarding `CC1(C)C(=O)Nc2nc(-c3nn(Cc4ccccc4F)c4ncc(F)cc34)nc(C(=O)NC3(C#N)CC3)c21` [Example 31], in experiment [1], the MEC was 0.1 µM. The IC50 in experiment [2] is 10 nM.
Regarding `CC1(C)C(=O)Nc2nc(-c3nn(Cc4ncccc4F)c4ncc(F)cc34)nc(C(=O)NC3CC3)c21` [Example 32], the MEC in experiment [1] is 1 µM. The concentration for half-maximal inhibition (IC50) in experiment [2] amounted to 12 nM.
